This series in a line: solvent given as SMILES.

Compound `F[B-]1(F)n2c(-c3ccccc3)cnc2-c2cccc[n+]21` showed an emission maximum (in C1CCCCC1) of 486 nm; an emission maximum (in C1CCOC1) of 509 nm; an emission maximum (in C1COCCO1) of 509 nm; an emission maximum (in CC#N) of 514 nm; an emission maximum (in CCCCCC) of 487 nm; an emission maximum (in CO) of 503 nm. The emission maximum (in ClC(Cl)Cl) is on record as 501 nm.
For the compound `CN1c2ccccc2CCc2ccccc21`, the emission maximum reads like this: (in CC#N) 346 nm; (in CO) 348 nm.
For the setting “in Cc1ccccc1”, `CC1(C)c2cc(-n3c4ccccc4c4ccccc43)ccc2N(c2ccc(-c3cc(-c4ccccc4)nc(-c4ccccc4)n3)cc2)c2ccc(-n3c4ccccc4c4ccccc43)cc21` registered an emission maximum of 494.44 nm.
As for `N#Cc1nn(-c2ccccc2)nc1N1CCCC1`, under “in CC#N”, the emission maximum was found to be 423 nm.
Regarding `CCOC(=O)C1CC(c2c(C#N)c(C)nn2-c2ccccc2)=CN1c1ccc(Br)cc1` (stereo unspecified), the emission maximum by setting is: (in C1CCOC1) 480 nm; (in C1COCCO1) 480 nm; (in CC#N) 488 nm; (in CCCCCCC) 455 nm; (in CCO) 490 nm; (in O) 495 nm. In addition, the emission maximum amounted to 492 nm (in OCC(O)CO) and 495 nm (in OCCO).
Turning to `Cc1cc(=O)oc2cc3c4ccccc4c4ccccc4c3cc12`, the emission maximum is, setting by setting: (in C1CCOC1) 410 nm; (in CC#N) 419 nm; (in CO) 420 nm; (in CS(C)=O) 418 nm; (in Cc1ccccc1) 410 nm; (in ClC(Cl)Cl) 415 nm.
Consider `CN(C)c1ccc(/C=C/c2cc[n+](Cc3cc(C[n+]4ccc(/C=C/c5ccc(N(C)C)cc5)cc4)cc(C[n+]4ccc(/C=C/c5ccc(N(C)C)cc5)cc4)c3)cc2)cc1`, for which the emission maximum was found to be 580 nm (in C1COCCO1); 607 nm (in CC(C)O); 595 nm (in CCCCCCCCO); 608 nm (in CCCCO); 611 nm (in CCCO); 613 nm (in CCO). In addition, the emission maximum (in CO) amounted to 618 nm, the emission maximum (in CS(C)=O) worked out at 627 nm, the emission maximum (in ClC(Cl)Cl) turned out to be 580 nm and the emission maximum (in ClCCl) turned out to be 600 nm.
`O=C1CC(c2cccc([N+](=O)[O-])c2)c2c(c3ccccc3c3nc4ccccc4nc23)O1` (stereo unspecified): the emission maximum reads like this: (in CCCCCC) 417 nm; (in CCOC(C)=O) 429 nm; (in CN(C)C=O) 443 nm; (in CO) 452 nm; (in CS(C)=O) 452 nm; (in ClC(Cl)Cl) 428 nm.
On to `Cc1ccc(C2=C3C=CC(c4ccccc4)=[N+]3[B-](F)(F)n3c(Cl)ccc32)cc1`, for which the emission maximum is recorded as 553 nm (in C1CCCCC1); 555 nm (in C1CCOC1); 554 nm (in C1COCCO1); 551 nm (in CCOC(C)=O); 549 nm (in CO); 558 nm (in Cc1ccccc1). Under “in ClC(Cl)Cl”, this compound gave an emission maximum of 555 nm.
With `CCN(CC)c1ccc2cc(C#N)/c(=N\C(C)=O)oc2c1`, the emission maximum by setting is: (in CCO) 462 nm; (in ClCCl) 460 nm.
Consider `c1ccc(-c2cn3ccc[n+]3[n-]2)cc1`, for which the emission maximum (in ClCCl) was 419 nm.
`COC1=C/C(=C\C=C2C=CN(Cc3ccc(Br)cc3)C=C2)C=CC1=O` displayed an emission maximum (in CC#N) of 665 nm; an emission maximum (in CC(C)=O) of 670 nm; an emission maximum (in CC(C)CO) of 642 nm; an emission maximum (in CC(C)O) of 641 nm; an emission maximum (in CCC#N) of 665 nm; an emission maximum (in CCCCCCO) of 645 nm. The emission maximum is on record as 643 nm (in CCCCCO); 640 nm (in CCCCO); 639 nm (in CCCO); 638 nm (in CCO); 682 nm (in CN(C)C=O); 670 nm (in CN(C)P(=O)(N(C)C)N(C)C). This compound also showed an emission maximum (in CO) of 636 nm and an emission maximum (in CS(C)=O) of 669 nm.
`C(=C\c1ccccn1)/c1ccc(N(c2ccc(/C=C/c3ccccn3)cc2)c2ccc(-c3nc4ccccc4nc3-c3ccc(N(c4ccc(/C=C/c5ccccn5)cc4)c4ccc(/C=C/c5ccccn5)cc4)cc3)cc2)cc1`: the emission maximum is, setting by setting: (in C1CCOC1) 548 nm; (in Cc1ccccc1) 533 nm.
For `CCN(CC)c1ccc2cc(/C=C/c3cccc[n+]3CCCS(=O)(=O)[O-])c(=O)oc2c1`, the emission maximum came out at 641 nm (in C1CCOC1); 634 nm (in CC#N); 639 nm (in CC(C)=O); 642 nm (in CS(C)=O); 641 nm (in Cc1ccccc1); 627 nm (in O). Under “in OCC(O)CO”, the emission maximum turned out to be 625 nm.
`N#C/C(=C\c1ccc(Cl)cc1)c1nc2ccccc2s1` registered an emission maximum (in C1CCCCC1) of 390 nm and an emission maximum (in CO) of 430 nm.
Where the note is “in ClC(Cl)Cl”, `CCCCCCCCC1(CCCCCCCC)c2cc3c(cc2-c2sc(-c4ccc(/C=C5\SC(=S)N(CC)C5=O)c5nsnc45)cc21)C(CCCCCCCC)(CCCCCCCC)c1cc(-c2ccc(/C=C4\SC(=S)N(CC)C4=O)c4nsnc24)sc1-3` displayed an emission maximum of 728 nm.
Where the note is “in ClCCl”, `COc1ccc(C#CC2=C3CCc4ccccc4C3=[O+][B-](F)(F)O2)cc1` came in with an emission maximum of 493 nm.
Regarding `C1=C(c2ccccc2)C(c2ccccc2)=CC1c1ccccc1`, under “in C1CCOC1”, the emission maximum was determined as 345 nm.
Take `CC(C)(C)c1ccc2c(c1)c1cc(C(C)(C)C)ccc1n2-c1ccc(C(=O)c2ccc(-n3c4ccc(C(C)(C)C)cc4c4cc(C(C)(C)C)ccc43)nc2)cn1`: the emission maximum was determined as 496.58 nm (in C1CCOC1), 465.19 nm (in Cc1ccccc1) and 532.91 nm (in ClCCl).
Turning to `CC1=c2c3c4cccc5cccc(c=3c(C)[n+]2[B-](F)(F)n2c(C)c3cc6c(-c7ccccc7)c7c(c(-c8ccccc8)c6cc3c21)-c1cccc2cccc-7c12)c54`, the emission maximum (in ClCCl) was determined as 695 nm.
The compound `CON(OC)c1cc2c3cc(-c4c(C)cc(C)cc4C)cc4c5cc(-c6c(C)cc(C)cc6C)cc6c7cc(B(c8c(C)cc(C)cc8C)c8c(C)cc(C)cc8C)cc8c9cc(-c%10c(C)cc(C)cc%10C)cc%10c%11cc(-c%12c(C)cc(C)cc%12C)cc%12c(c1)c2c1c(c43)c(c65)c(c78)c(c9%10)c1c%11%12` returned an emission maximum (in C1CCOC1) of 591 nm; an emission maximum (in CC(C)=O) of 615 nm; an emission maximum (in CCCCCC) of 490 nm; an emission maximum (in Cc1ccccc1) of 510 nm; an emission maximum (in ClC(Cl)Cl) of 545 nm; an emission maximum (in ClCCl) of 585 nm.
For the compound `CN(C)c1ccc(C#Cc2nc(-c3ccccc3)nc3ccccc23)cc1`, the emission maximum came out at 423 nm (in C1CCCCC1); 549 nm (in C1CCOC1); 570 nm (in CC#N); 584 nm (in CS(C)=O); 551 nm (in ClCCl).
In turn, `Cc1cn(CCCn2cc(C)c(=O)[nH]c2=O)c(=O)nc1-n1cncn1` displayed an emission maximum (in O) of 382 nm.
Turning to `O=C(O)COc1cccc(OCC(=O)O)c1-c1c2ccc(=[N+]3CCCCC3)cc-2oc2cc(N3CCCCC3)ccc12`, the emission maximum by setting is: (in CCO) 580 nm; (in O) 594 nm.
In turn, `CCOC(=O)c1c(-c2c(Cl)c3ccccc3oc2=O)nn(-c2cccc(C)c2)c1C(=O)OCC` gave an emission maximum (in ClCCl) of 410 nm.
Take `C[N+]1=C(/C=C/C=C2/N(CCC[N+](C)(C)C)c3ccccc3C2(C)C)C(C)(C)c2ccccc21`: where the note is “in CS(C)=O”, the emission maximum came out at 565 nm.
`Clc1cc(Cl)c([C](c2c(Cl)cc(Cl)cc2Cl)c2c(Cl)cc(-n3c4ccccc4c4ccccc43)cc2Cl)c(Cl)c1`: the emission maximum is listed as 628 nm (in C1CCCCC1) and 680 nm (in ClC(Cl)Cl).
Take `O=C1[C@@H]2[C@H](C(=O)N1c1cccc3cc4ccccc4cc13)[C@@H]1C=C[C@H]2C1`: the emission maximum (in ClC(Cl)Cl) came to 392 nm.
For the setting “in CCCCCC”, `CC(C)[Si](C#Cc1c2cc3ccccc3cc2c(C#C[Si](C(C)C)(C(C)C)C(C)C)c2nc3c(ccc4cc5ccccc5cc43)nc12)(C(C)C)C(C)C` yielded an emission maximum of 654 nm.
For the setting “in CO”, `CCN(CC)c1ccc(C2=C3C(C)=CC(/C=C/c4ccc(OCCCN=[N+]=[N-])cc4)=[N+]3[B-](F)(F)n3c(C)cc(C)c32)cc1` had an emission maximum of 587 nm.
Compound `CCOC(=O)/C=C/c1cc2ccc(O)cc2oc1=O` came in with an emission maximum (in CCO) of 430 nm.
Regarding `COc1ccc(-c2c3cc4cc(C)sc4cc3c(-c3ccc(OC)cc3)c3cc4cc(C)sc4cc23)cc1`, for the setting “in ClCCl”, the emission maximum amounted to 514 nm.
For the compound `CCc1ccc(-n2c3ccccc3c3cc4c(cc32)c2ccccc2n4-c2ccc(CC)s2)s1`, the emission maximum (in ClC(Cl)Cl) stood at 405 nm.
Turning to `CCN(CC)c1ccc(-c2ccc(-c3nc(N4CCOCC4)c4ccccc4n3)s2)cc1`, the emission maximum is recorded as 544 nm (in CC#N) and 476 nm (in Cc1ccccc1).
With `COc1ccc2cc(-c3ccccc3CC#N)c(=O)oc2c1`, where the note is “in ClC(Cl)Cl”, the emission maximum is 409 nm.
In turn, `N#Cc1c(N2CCCCC2)cc(-c2cccc3ccccc23)c2c1CCc1ccccc1-2` showed an emission maximum (in C1CCOC1) of 465 nm.
The compound `Clc1nnc(Oc2ccc(N(c3ccc(Br)cc3)c3ccc(Br)cc3)cc2)nn1` came in with an emission maximum (in ClCCl) of 559 nm.
Consider `COc1cccc(-c2[nH]c(=O)n3c2-c2ccccc2C3=O)c1O`, for which the emission maximum runs as follows: (in CC#N) 478 nm; (in CO) 496 nm; (in ClCCl) 471 nm.
As for `C(#Cc1ccncc1)C(C#Cc1ccncc1)=Cc1ccc(C=C(C#Cc2ccncc2)C#Cc2ccncc2)s1`, the emission maximum (in ClC(Cl)Cl) came to 587 nm.
Take `O=C1OC(=O)c2ccc(N(c3ccccc3)c3ccc4ccccc4c3)c3cccc1c23`: the emission maximum is recorded as 621 nm (in C1CCOC1), 520 nm (in CCCCCC), 638 nm (in ClCCl) and 580 nm (in c1ccccc1).
In the case of `CCn1c2cc(-c3ccc(-c4cccs4)s3)ccc2c2ccc(-c3ccc(-c4cccs4)s3)cc21`, for the setting “in ClCCl”, the emission maximum came out at 447 nm.

For the origin of these results see the Deep4Chem optical property database.
